Laboratory results taken from article PMC11410249 (PLOS ONE, 2024).

What was measured:
Assay type in all cases: biochemical
12-LO = target: T1, 12-LO (Homo sapiens, UniProt P18054); experiment: LC-MS/MS enzyme activity assay, […] enzyme, […] arachidonic acid
T1 construct: gene ALOX12
T1 sequence (P18054 1-663): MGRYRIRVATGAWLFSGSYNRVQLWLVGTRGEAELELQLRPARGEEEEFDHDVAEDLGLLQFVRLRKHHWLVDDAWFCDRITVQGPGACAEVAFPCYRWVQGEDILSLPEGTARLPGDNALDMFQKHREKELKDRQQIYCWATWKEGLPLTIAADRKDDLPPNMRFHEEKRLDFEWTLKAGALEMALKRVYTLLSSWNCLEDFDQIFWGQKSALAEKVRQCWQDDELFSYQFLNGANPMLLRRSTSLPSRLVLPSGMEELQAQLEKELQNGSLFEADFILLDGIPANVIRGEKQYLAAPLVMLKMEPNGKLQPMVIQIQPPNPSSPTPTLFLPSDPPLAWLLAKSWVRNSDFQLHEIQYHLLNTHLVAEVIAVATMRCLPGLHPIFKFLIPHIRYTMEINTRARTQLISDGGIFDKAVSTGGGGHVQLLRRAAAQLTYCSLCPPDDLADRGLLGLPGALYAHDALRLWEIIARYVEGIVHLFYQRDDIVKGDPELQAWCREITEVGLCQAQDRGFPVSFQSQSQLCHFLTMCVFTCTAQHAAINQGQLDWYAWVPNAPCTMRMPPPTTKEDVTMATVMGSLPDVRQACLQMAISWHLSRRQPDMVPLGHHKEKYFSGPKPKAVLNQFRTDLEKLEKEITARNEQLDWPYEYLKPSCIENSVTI

5-lipoxygenase (5-LO) = target: T2, 5-lipoxygenase (5-LO) (Homo sapiens, UniProt P09917); experiment: LC-MS/MS activity assay in lysate of 5-LO-transfected Expi293F cells, […] arachidonic acid
T2 construct: gene ALOX5; full-length human 5-LO
T2 sequence (P09917 1-674): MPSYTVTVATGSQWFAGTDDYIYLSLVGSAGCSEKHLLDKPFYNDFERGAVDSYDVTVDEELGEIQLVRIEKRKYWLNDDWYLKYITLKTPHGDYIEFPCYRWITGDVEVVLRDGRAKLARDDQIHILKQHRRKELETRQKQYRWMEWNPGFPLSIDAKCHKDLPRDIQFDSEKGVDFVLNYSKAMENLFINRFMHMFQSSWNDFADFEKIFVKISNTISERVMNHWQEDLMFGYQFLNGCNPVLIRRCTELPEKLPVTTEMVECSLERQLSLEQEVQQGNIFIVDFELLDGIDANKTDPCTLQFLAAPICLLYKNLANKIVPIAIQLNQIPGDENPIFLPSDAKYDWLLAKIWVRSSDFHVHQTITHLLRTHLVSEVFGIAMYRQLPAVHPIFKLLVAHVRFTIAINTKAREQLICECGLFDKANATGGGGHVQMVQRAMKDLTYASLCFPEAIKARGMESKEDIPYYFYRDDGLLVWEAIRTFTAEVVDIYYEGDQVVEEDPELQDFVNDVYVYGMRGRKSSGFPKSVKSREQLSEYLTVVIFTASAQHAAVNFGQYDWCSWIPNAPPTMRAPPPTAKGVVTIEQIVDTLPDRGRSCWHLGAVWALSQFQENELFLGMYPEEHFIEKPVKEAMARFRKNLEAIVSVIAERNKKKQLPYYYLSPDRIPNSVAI

15-lipoxygenase (15-LO) = target: T3, 15-lipoxygenase (15-LO) (Homo sapiens, UniProt P16050); experiment: LC-MS/MS enzyme activity assay, […] enzyme, […] arachidonic acid
T3 construct: gene ALOX15
T3 sequence (P16050 2-662): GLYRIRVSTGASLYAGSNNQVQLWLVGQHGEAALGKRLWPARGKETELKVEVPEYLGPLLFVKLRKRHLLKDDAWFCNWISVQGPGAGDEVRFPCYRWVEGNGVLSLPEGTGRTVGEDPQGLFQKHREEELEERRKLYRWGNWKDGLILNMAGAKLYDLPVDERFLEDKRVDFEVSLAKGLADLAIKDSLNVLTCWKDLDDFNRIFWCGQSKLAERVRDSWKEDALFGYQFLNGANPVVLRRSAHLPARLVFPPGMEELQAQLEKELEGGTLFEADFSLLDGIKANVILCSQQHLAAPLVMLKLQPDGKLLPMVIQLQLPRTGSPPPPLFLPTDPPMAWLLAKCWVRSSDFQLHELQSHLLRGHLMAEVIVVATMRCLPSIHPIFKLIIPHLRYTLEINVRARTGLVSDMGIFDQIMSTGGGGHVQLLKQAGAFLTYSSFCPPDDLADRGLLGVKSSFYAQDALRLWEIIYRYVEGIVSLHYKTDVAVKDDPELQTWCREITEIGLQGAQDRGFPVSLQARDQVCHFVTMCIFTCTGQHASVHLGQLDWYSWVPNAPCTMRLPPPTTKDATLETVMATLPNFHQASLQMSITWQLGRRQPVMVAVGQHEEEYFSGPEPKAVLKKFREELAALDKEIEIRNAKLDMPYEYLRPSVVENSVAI

cyclooxygenase (COX-2) = target: T4, cyclooxygenase (COX-2) (Homo sapiens, UniProt P35354); experiment: in vitro enzyme activity assay (product formation by LC-MS/MS)
T4 construct: gene PTGS2
T4 sequence (P35354 18-604): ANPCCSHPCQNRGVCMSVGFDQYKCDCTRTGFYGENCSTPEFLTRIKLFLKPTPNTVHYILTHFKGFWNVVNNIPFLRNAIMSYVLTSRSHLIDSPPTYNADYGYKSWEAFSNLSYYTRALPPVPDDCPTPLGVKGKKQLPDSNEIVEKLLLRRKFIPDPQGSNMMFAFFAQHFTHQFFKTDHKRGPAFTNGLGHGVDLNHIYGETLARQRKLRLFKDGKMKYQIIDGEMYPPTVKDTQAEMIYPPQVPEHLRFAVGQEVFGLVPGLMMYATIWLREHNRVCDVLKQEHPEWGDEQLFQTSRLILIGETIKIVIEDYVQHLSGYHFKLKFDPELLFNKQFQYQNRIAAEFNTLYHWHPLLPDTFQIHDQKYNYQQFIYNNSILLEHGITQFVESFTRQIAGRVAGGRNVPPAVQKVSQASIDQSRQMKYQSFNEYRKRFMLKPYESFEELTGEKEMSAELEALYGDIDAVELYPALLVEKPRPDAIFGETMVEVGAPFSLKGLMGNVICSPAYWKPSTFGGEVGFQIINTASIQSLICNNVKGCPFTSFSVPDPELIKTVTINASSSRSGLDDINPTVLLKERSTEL

IC50 (12-LO): 5.2 µM
IC50 (5-lipoxygenase (5-LO)): 0.46 µM
IC50 (15-lipoxygenase (15-LO)): 0.95 µM
IC50 (cyclooxygenase (COX-2)): 9.6 µM
Substance: PTC-041 hydroquinone
